Data: patent US8637463B2, “Peptide inhibiting angiotensin converting enzyme” (Meiji Dairies Corporation, priority 2003, dated 2014)
Where a SMILES comes first, the peptide text is derived from it. Where no end group is shown, it is not given here.

Biological target: Angiotensin Converting Enzyme (Homo sapiens, UniProt P12821)
Sequence (P12821 30-1306, species assumed): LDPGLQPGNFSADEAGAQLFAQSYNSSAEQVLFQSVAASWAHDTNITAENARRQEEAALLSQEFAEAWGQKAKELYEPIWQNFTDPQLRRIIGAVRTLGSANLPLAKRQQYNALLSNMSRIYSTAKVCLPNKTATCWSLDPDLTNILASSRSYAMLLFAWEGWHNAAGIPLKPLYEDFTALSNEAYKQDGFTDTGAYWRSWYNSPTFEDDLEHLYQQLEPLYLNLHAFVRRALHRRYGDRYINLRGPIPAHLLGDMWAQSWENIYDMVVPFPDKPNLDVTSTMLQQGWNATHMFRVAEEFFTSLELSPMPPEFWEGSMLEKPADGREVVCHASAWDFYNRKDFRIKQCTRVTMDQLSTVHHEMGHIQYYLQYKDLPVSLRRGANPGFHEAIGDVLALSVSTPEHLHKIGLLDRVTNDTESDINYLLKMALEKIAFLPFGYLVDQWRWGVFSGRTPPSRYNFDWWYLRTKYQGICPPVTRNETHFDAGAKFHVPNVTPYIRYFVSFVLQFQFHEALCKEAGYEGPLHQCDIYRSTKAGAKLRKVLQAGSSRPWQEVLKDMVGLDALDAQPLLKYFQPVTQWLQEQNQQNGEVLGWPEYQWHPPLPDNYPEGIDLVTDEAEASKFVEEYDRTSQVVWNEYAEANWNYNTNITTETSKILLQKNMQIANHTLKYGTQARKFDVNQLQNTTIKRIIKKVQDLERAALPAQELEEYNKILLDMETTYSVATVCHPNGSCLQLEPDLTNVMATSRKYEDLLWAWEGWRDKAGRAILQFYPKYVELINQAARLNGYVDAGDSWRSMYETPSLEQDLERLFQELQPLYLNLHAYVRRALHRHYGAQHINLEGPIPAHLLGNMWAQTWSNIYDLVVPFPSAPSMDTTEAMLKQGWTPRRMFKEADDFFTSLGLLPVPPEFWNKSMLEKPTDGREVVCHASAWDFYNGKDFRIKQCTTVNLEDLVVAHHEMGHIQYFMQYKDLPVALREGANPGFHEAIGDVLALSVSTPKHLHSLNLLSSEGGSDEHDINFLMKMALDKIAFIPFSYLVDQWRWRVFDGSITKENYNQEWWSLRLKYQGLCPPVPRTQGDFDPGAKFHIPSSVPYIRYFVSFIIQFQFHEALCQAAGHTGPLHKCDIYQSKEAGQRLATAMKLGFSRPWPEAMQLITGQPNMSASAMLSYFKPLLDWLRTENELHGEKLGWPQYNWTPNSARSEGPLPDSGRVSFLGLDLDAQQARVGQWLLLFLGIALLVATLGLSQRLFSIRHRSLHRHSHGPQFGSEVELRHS
Assay: ACE inhibitory activity with Hippuryl-His-Leu substrate, absorbance at 228 nm
Assay type: biochemical
Details: peptides having Met-Ala-Pro as a partial structure, same method as Example 2; Table 2
Procedure: Each of the peptides of SEQ ID NOs:1 to 7 was synthesized using an automatic peptide synthesizer. It was confirmed by reverse phase HPLC that the purity of each of the thus obtained peptides is 95%. Each of these synthetic peptides was dissolved in 0.1 M borate buffer (pH 8.3). Subsequently, 0.1 ml of an enzyme solution (Angiotensin Converting Enzyme: 2 units/ml) and 0.04 ml of each of the sample solutions were mixed therewith, followed by heating to 37° C. A 0.1 ml portion of a substrate solution (Hippuryl-His-Leu; N-Benzoyl-Gly-His-Leu) was added thereto, followed by thorough stirring. After allowing the mixture to react at 37° C. for 60 minutes, the reaction was stopped by adding 0.13 ml of 1 N hydrochloric acid. Then, 0.85 ml of ethyl acetate was added thereto, followed by shaking for 1 minute, and then the mixture was centrifuged at 3,000 rpm for 10 minutes. A 0.7 ml portion of the supernatant was recovered, and the solvent was removed using a centrifugal evaporator (about 30 minutes). The residual matters were dissolved by adding 0.5 ml of distilled water, and the absorbance at a wavelength of 228 nm was measured.
The activity of inhibiting ACE (%) was calculated by the following mathematical expression 1. Activity of inhibiting ACE(%)={(A−B)−(C−D)}/(A−B)×100 Mathematical expression 1
In this connection, A in the expression is absorbance of the control when the enzyme is used, B is the absorbance of the control when the enzyme is not used, C is absorbance of the sample when the enzyme is used, and D is absorbance of the sample when the enzyme is not used. In addition, 0.1 M borate buffer was used in the control instead of the sample solution.
Based on the thus obtained ACE inhibitory activities, IC50 of each peptide was calculated.
ACE inhibitory activities (%) of the 4 peptides, Leu-Met-Ala-Pro (SEQ ID NO:4), Arg-Met-Ala-Pro (SEQ ID NO:5), Met-Ala-Pro-Pro (SEQ ID NO:6) and Arg-Met-Ala-Pro-Pro (SEQ ID NO:7), which have Met-Ala-Pro as a partial structure, were obtained by the same method of Example 2, and their IC50's were calculated.
With `CSCC[C@H](NC(=O)[C@@H](N)CC(C)C)C(=O)N[C@@H](C)C(=O)N1CCC[C@H]1C(=O)O` [Leu-Met-Ala-Pro] (H-LMAP-OH; N-terminus and C-terminus assumed) the IC50 was 27.9 µM.
Work on `CSCC[C@H](NC(=O)[C@@H](N)CCCNC(=N)N)C(=O)N[C@@H](C)C(=O)N1CCC[C@H]1C(=O)O` [Arg-Met-Ala-Pro] (H-RMAP-OH; N-terminus and C-terminus assumed) yielded an IC50 of 24 µM.
Compound RMAPP [Arg-Met-Ala-Pro-Pro] has an IC50 of 255 µM.
In the case of `CSCC[C@H](N)C(=O)N[C@@H](C)C(=O)N1CCC[C@H]1C(=O)N1CCC[C@H]1C(=O)O` [Met-Ala-Pro-Pro] (H-MAPP-OH; N-terminus and C-terminus assumed), the IC50 is reported as 28.3 µM.

Same assay, conditions: synthetic peptide, 0.1 M borate buffer pH 8.3, 37° C., 60 minutes; Table 1
Work on `CC[C@H](C)[C@H](N)C(=O)N[C@@H](CCC(N)=O)C(=O)N[C@@H](C)C(=O)O` [Ile-Gln-Ala] (H-Ile-Gln-Ala-OH; N-terminus and C-terminus assumed) yielded an IC50 of 64.1 µM.
Compound `CC[C@H](C)[C@H](N)C(=O)N[C@@H](Cc1c[nH]cn1)C(=O)N[C@@H](C)C(=O)O` [Ile-His-Ala] (H-Ile-His-Ala-OH; N-terminus and C-terminus assumed) has an IC50 of 394 µM.

Biological target: ACE (Homo sapiens, UniProt P12821)
Sequence (P12821 30-1306, species assumed): as above
Assay: not given
Details: known ACE-inhibiting peptides from casein and corn protein α-zein; cited from earlier work
In the case of “Val-Ala-Pro [VAP, casein-derived peptide]”, the IC50 is given as 2 µM.
For “Leu-Gln-Pro [LQP, corn protein α-zein-derived peptide]”, the IC50 is given as 2 µM.
In the case of “Ile-Pro-Pro [IPP, casein-derived peptide]”, the IC50 is listed as 5 µM.
For Val-Pro-Pro [VPP], the IC50 is given as 9 µM.
